US20220362396A1, “AMINO-PYRAZINECARBOXAMIDE COMPOUNDS, CONJUGATES, AND USES THEREOF” (Silverback Therapeutics, Inc., priority 2018, published 2022)
Entries after “also recorded” stand apart in the source; their conditions may differ.

How the values were obtained:
[1] = tested on: TGFβ-inducible genes in PANC-1 tumors; experiment: Intra-tumoral injection of TGFβR2 inhibitors, PANC-1 xenograft, RT-qPCR of tumors; assay type: in vivo, nude mice; settings: PANC-1, 2 ug intra-tumoral QD5, tumors 4 h after last injection, vs DMSO vehicle
Method: (§1) TGFβR2 inhibitors were tested for their ability to alter expression in vivo of a set of genes reported to be regulated by TGFβ, particularly those associated with tumor CAFs. Two million BXCP3 (ATTC) or 5 million PANC-1 (ATTC) cells in Matrigel (Corning Life Sciences) were inoculated into the flanks of nude mice (JAX Labs) and allowed to grow to approximately 100 mm3 in size before sorting into cohorts for treatment. BXPC3 tumors were treated by intra-tumoral injection (IT) of 2 ug QD5 of either compound 211, compound 171 or equal volume of DMSO vehicle while PANC-1 tumors received 2 ug injections QD5 of compound 211 or vehicle control. Four hours after the last injection tumors were removed and processed for RT-qPCR by homogenization in M tubes (Miltenyi Biotec) using Purelink RNA Kit (Ambion) to isolate RNA and Taqman® RNA to CT 1 Step Kit (Applied Biosystems) with a OneStepPlus Thermocycler. Gene specific primers were obtained from ThermoFisher Scientific. […] Data was analyzed and graphed using GraphPad Prism v8.1.0. Statistical difference for gene mRNA expression between TGFβR2 inhibitor and vehicle treated cohorts was determined using multiple T test comparison with discovery (FDR) by the two-stage linear step-up procedure of Benjamini, Krieger and Yekutieli, with Q=5%. Each row was analyzed individually, without assuming a consistent SD.

TGFBR2 = biological target: T1, TGFBR2 (Homo sapiens, UniProt P37173); experiment: TGFBR2 RBC assay (enzyme inhibition assay, Reaction Biology Corp.); assay type: biochemical
T1 construct: purchased Reaction Biology Corp
T1 sequence (P37173 23-567): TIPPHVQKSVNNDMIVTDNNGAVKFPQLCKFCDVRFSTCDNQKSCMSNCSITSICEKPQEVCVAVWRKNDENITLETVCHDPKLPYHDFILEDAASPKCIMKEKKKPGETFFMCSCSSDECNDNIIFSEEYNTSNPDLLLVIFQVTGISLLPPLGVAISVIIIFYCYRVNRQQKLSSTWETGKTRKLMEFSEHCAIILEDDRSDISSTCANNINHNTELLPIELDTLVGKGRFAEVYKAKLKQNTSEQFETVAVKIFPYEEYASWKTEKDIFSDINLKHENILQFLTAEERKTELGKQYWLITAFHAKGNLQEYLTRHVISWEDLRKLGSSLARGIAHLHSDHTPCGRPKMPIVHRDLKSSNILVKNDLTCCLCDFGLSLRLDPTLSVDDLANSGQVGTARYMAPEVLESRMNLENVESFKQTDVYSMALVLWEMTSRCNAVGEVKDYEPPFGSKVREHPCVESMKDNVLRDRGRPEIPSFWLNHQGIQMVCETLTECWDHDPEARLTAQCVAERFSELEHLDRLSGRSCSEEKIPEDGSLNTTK
Method: Compounds of the disclosure were also assayed by Reaction Biology Corp. using the TGFBR2 RBC assay (enzyme inhibition assay). […] NT refers to not tested.

[2] = tested on: TGFβ/SMAD Signaling Pathway SBE reporter cell line; experiment: TGFβ reporter assay, in vitro small molecule screening (luciferase); assay type: cell-based; settings: TGFβ stimulation, luminescence
How it was run: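 SBE luciferase reporter cells (~0.5×10^6 cells/mL) preincubated with compound 5-6 h at 37 °C in 0.5% FBS MEM, then stimulated with TGFβ (12 ng/mL stock) for 18 h. Luminescence read after luciferase substrate; EC50 from curve fits.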

[3] = tested on: TGFβ-inducible genes in BXPC3 tumors; experiment: Intra-tumoral injection of TGFβR2 inhibitors, BXPC3 xenograft, RT-qPCR of tumors; assay type: in vivo, nude mice; settings: BXPC3, 2 ug intra-tumoral QD5, tumors 4 h after last injection, vs DMSO vehicle
Method: as §1

[4] = tested on: elastin gene expression in LL97a cells; experiment: qPCR of TGFβ-induced elastin mRNA in LL97a IPF fibroblasts; assay type: cell-based, human; settings: small molecules, TGFβ 24 hours, concentration dependent
Method: (§2) The ability of select small molecules to lower a TGFβ 1-induced mRNA were tested in assays with the cell line LL97a (ATCC) as follows. LL97a cells were seeded in 96 well plates at 10,000 cells/well in DMEM+10% FBS+1% NaPyr, +1% L-glut, +1% NEAA, +1% HEPES+0.5% Pen/Strep. The following day test articles and controls were added at varying concentrations in assay media of DMEM+0.5% BSA along with 0.5 ng/mL TGFβ1 (PeproTech Inc.) was added to wells. After 24 hours or 48 hours incubation with TGFβ1 at 37 C in a 5% CO2 environment RNA was prepared from cells and QPCR performed for the TGFβ-inducible genes αSMA and elastin as well as the non-inducible control gene RPLPO with a Tagman® Gene Expression Cells-to-CT 1—Step Kit (Life Technologies Inc.) and with a One Step Plus Thermocycler (Applied Biosystems) as per manufacturers' recommendations. Primer probe sets were obtained from ThermoFisher Scientific.

[5] = tested on: αSMA gene expression in LL97a cells; experiment: qPCR of TGFβ-induced αSMA mRNA in LL97a IPF fibroblasts; assay type: cell-based, human; settings: small molecules, TGFβ 24 hours, concentration dependent
Method: as §2
Compounds 2.1 and 171 were covalently attached to an anti-LRRC15 antibody using different protease cleavable PABC linkers. […] Average DAR level of the purified species was determined by analysis via hydrophobic interaction chromatography (HIC) using TSK-gel butyl NPR (Tosoh Bioscience LLC) and by LCMS (Waters Corp.) and they were tested for their ability to reduce αSMA and elastin gene induction by TGFβ in the LL97a and NHLF human fibroblast cell lines using a qPCRassay. […]

IC50 (TGFBR2)	EC50 [2]	SMILES	mRNA level of TGFβ-inducible genes in tumors [1]	mRNA level of TGFβ-inducible genes in tumors [3]	inhibition of TGFβ-induction of elastin gene expression [4]	inhibition of TGFβ-induction of αSMA gene expression [5]
< 50 nM	< 50 nM	CC(CN)Oc1ccc(-c2cnc(N)c(C(=O)Nc3cnccc3N3CCOCC3)n2)cc1 (centres unmarked) [Compound 211]	reduces the mRNA level; also recorded: decreased many TGFβ-inducible gene mRNAs	reduce the mRNA level; also recorded: reduced the mRNA level of most TGFβ-inducible genes		
< 50 nM	100 to 1000 nM	Nc1ncc(-c2ccc3c(c2)C(O)CC3)nc1C(=O)Nc1cnccc1N1CCOCC1 (centres unmarked) [Compound 250]			inhibits	inhibits
